Measurements reported in patent US5093045A, “Biologically active lipids binding membrane receptors” (priority 1990, dated 1992).
Several values for one entry are separate records, joined by “and”; a condition that tells them apart may be missing. Identical values can stand only once.

How the values were obtained:
[1] = test system: phorboid receptor (PDBu receptor) of murine brain membranous fraction (BMF); test: PDBu binding inhibiting activity (PBIA): inhibition of 3H-PDBu binding to murine brain membranous fraction; design: species or system mouse
Experimental: Pooled murine brains from approximately 2 month old mice, NFS strain, were minced with scissors, suspended in 1 mM triethanolamine-HCl, pH 7.4, and disrupted with a polytron P-10 (Brinkman). This and all subsequent steps were performed at 4° C. The homogenate was centrifuged for 10 minutes at 1700xg; the supernate was removed and centrifuged for 60 minutes at 105,000xg. The resulting pellet was suspended in one-fourth of the initial volume of PBS. The suspension was aliquoted into a small volume and stored at -70° C.
The binding of ^3 H-PDBu to BMF or soluble receptors was performed in duplicate in 12×75mm disposable glass tubes (Kimax) both in the absence and presence of 20μg/ml unlabeled PDBu; the binding mixture contained 5ng of ^3 H-PDBu (4×10^4 cpm), 0.2% final concentration of DMSO and BMF (50μg protein) or soluble receptors in a total volume of 0.25 ml binding buffer (BB) consisting of Dulbecco's […] (DMEM) containing bovine serum albumin (BSA lmg/ml) and N,N,-bis-(2-hydroxyethyl)-2-amino-ethane sulfonic acid (BES, 5mM), adjusted to pH 6.8. After incubation for 30 minutes at 23° C. the tubes were chilled, 0.5 ml cold 4% calf serum (Colorado Serum Co., Denver, CO) and 0.7 ml cold polyethylene glycol (PEG 6,000) in 1 mM Tris-HCl, pH 7.4 was added to each tube, the contents vortexed, the tubes allowed to stand for 15 min at 4° C., and centrifuged for 10 min at 1500xg at 4° C. The supernatant solution was carefully aspirated off, the pellet suspended in 2.5 ml of cold 10% PEG in 0.1 M Tris-HCl, pH 7.4, containing 0.5% SDS and 1 mM EDTA). The mixture was transferred to counting vials and 10 ml of Aquassure (NEN) was added to each vial. The vials were vigorously shaken and radioactivity determined using a Beckman beta counter.
The loss of the ability of ^3 H-PDBu to bind to receptors in the presence of ligand was used as the measure of inhibiting activity. PDBu binding inhibition assays were performed as described above, except the test materials were added to the reaction mixture and binding measured as described above.
The PBIA of ligand was equated with that of PDBu by the use of the term ng equivalent calculated from a plot of [^3 H]PDBu bound versus the log molar concentration for several biologically active phorbol esters (2). The curve corresponding to PDBu inhibition of PDBu binding was used by reading the molar concentration corresponding to the percent of control binding of ^3 H]PDBu in the presence of ligand to obtain the units ng PDBu equivalent of ligand.

[2] = test system: arachidonic acid cascade in mink lung cells; test: Stimulation of arachidonic acid cascade: release of radioactivity from cells prelabeled with arachidonic acid; type: cell-based; conditions: cells previously labeled with radioactive arachidonic acid
Description: The release of radioactivity into the medium from cells previously labeled with radioactive arachidonic was used as a measure of activation of eicosanoids pathway. […] PBIL from all sources inhibited PDBu-receptor interaction.

SMILES	Inhibition (%) of binding of PDBu to its receptor ([1]; concentration 0.4 nM)	Inhibition (%) of binding of PDBu to its receptor ([1]; concentration 0.8 nM)	further results
CCCCCCCCCCCCCC(=O)OCC(O)CO (centres unmarked) [1-Monomyristin]	0%		
CCCCCCCC/C=C\CCCCCCCC(=O)OCC(O)COC(=O)CCCCCCC/C=C\CCCCCCCC [1,3-Diolein]		11%	
CCCCC/C=C\C/C=C\C/C=C\C/C=C\CCCC(=O)OCC(O)CO (centres unmarked) [1-Monoarachidonin]	91%	95%	Competition with phorbol dibutyrate for its receptor (qualitative) [1]: compete with phorbol dibutyrate for its receptor; Inhibition (%) of binding of PDBu to its receptor ([1]; concentration 0.2 nM): 41%; Stimulation of arachidonic acid cascade (release of radioactivity into the medium) [2]: stimulate the arachidonic acid cascade
CCCCC/C=C\C/C=C\CCCCCCCC(=O)OC[C@@H](O)CO [1-Monolinolein]	82%	94%	Competition with phorbol dibutyrate for its receptor (qualitative) [1]: compete with phorbol dibutyrate for its receptor; Inhibition (%) of binding of PDBu to its receptor ([1]; concentration 0.2 nM): 39%; Stimulation of arachidonic acid cascade (release of radioactivity into the medium) ([2]; listed as 1-monolinolein): stimulate the arachidonic acid cascade; Stimulation of arachidonic acid cascade (release of radioactivity into the medium) ([2]; listed as monolinolein): activated the arachidonic acid cascade
OCC(O)CO [Glycerol]	0%		
CCCCCCCCCCCC(=O)OCC(COC(=O)CCCCCCCCCCC)OC(=O)CCCCCCCCCCC [Trilaurin]	11%		
CCCCCCCC/C=C\CCCCCCCC(=O)OCC(O)CO (centres unmarked) [1-Monoolein]	21%	63%	
CCCCC/C=C\C/C=C\CCCCCCCC(=O)OCC(COC(=O)CCCCCCC/C=C\C/C=C\CCCCC)OC(=O)CCCCCCC/C=C\C/C=C\CCCCC [Trilinolein]		-1%	
CCCCCCCCCCCCCC(=O)OCC(COC(=O)CCCCCCCCCCCCC)OC(=O)CCCCCCCCCCCCC [Trimystrin]	15%		
CCCCCC/C=C\CCCCCCCC(=O)OCC(O)CO (centres unmarked) [1-Monopalmitolein]	36%	82%	Competition with phorbol dibutyrate for its receptor (qualitative) [1]: compete with phorbol dibutyrate for its receptor; Stimulation of arachidonic acid cascade (release of radioactivity into the medium) [2]: stimulate the arachidonic acid cascade
CCCCCCCCCCCCCCCC(=O)OCC(O)COC(=O)CCCCCCCCCCCCCCC [1,3-Dipalmitin]		-12%	
CC/C=C\C/C=C\C/C=C\CCCCCCCC(=O)OCC(O)CO (centres unmarked) [1-Monolinolenin]	74%	94%	Inhibition (%) of binding of PDBu to its receptor ([1]; concentration 0.2 nM): 27%
CCCCCCCCCCCCCCCC(=O)OCC(COC(=O)CCCCCCCCCCCCCCC)OC(=O)CCCCCCCCCCCCCCC [Tripalmitin]	-11%	-8%	
CCCCCCCCCCCCCCCC(=O)OCC(O)CO (centres unmarked) [1-Monopalmitin]			Inhibition (%) of binding of PDBu to its receptor ([1]; concentration 0.8 nM, 0.0008 µM): -6% and -15%
CCCCC/C=C\C/C=C\CCCCCCCC(=O)OCC(O)COC(=O)CCCCCCC/C=C\C/C=C\CCCCC [1,3-Dilinolein]		15%	
CCCCC/C=C\C/C=C\CCCCCCCC(=O)O [Linoleic acid-Na]	10%	15%	
CCCCCCCCCCCCCC(=O)OCC(O)COC(=O)CCCCCCCCCCCCC [1,3-Dimyritin]	1%		
CCCCCCCC/C=C\CCCCCCCC(=O)OCC(CO)OC(=O)CCCCCCC/C=C\CCCCCCCC (centres unmarked) [1,2-Diolein]		20%	
